These results are taken from patent publication US5830863A, “Neurokinin A antagonists” (priority 1996, dated 1998).

Read-outs that look alike come from different tables or passages of the source. Residues, ends and D or L forms follow the SMILES beside them.

Assay [1] addresses T1, neurokinin A (NKA) receptor (NK-2) (Mesocricetus auratus, UniProt P51144).
T1 construct: displace I125 labeled NKA from hamster urinary bladder; from tissue; host or cells: hamster urinary bladder (membranes in A1, chopped tissue in A4)
T1 sequence (P51144 1-384): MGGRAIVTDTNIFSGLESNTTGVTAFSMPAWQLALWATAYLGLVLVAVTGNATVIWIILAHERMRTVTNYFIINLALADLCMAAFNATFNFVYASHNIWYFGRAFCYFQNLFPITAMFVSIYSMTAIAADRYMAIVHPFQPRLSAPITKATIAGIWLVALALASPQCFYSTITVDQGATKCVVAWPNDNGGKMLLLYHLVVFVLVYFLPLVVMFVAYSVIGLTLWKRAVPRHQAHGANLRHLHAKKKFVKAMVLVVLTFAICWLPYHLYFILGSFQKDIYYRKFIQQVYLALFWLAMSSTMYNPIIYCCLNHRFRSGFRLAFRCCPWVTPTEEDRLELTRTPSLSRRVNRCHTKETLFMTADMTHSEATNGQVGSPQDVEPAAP
The experiment in a line: displacement of I125 labeled NKA from hamster urinary bladder membranes. Type of assay: binding. An excerpt: The abscissa (x-axis) logarithmically indicates the concentration in nanomoles of agonist of antagonist of the neurokinin A (NKA) receptor. The ordinate (Y-axis) indicates the observed specific binding for each tested agonist or antagonist measured as a percentage of maximum specific binding.
Agonists tested were NKA and fragments of NKA consisting of the third to tenth (NKA(3-10)) amino acids and the fourth to tenth (NKA(4-10)) amino acids. Values are MEAN±S.E.M. of 6-12 experiments. IC50 values estimated graphically from 50% inhibition point.
Urinary bladders from several hamsters were pooled, minced, and homogenized in 50 mM TRIS-HCl (pH 7.4) containing 120 mM NaCl and 5 mM KCl at 4° C. and centrifuged at 48,000×g for 15 minutes. The pellet was resuspended for 30 minutes in 50 mM TRIS-HCl (pH 7.4) containing 10 mM EDTA and 300 mM KCl at 4° C. The suspension was centrifuged as above and the pellet was washed two times in plain 50 mM TRIS-HCl (pH 7.4) and centrifuged similarly. The tissue was then resuspended in incubation buffer and an aliquot (approximately 3-5 mg tissue) was added to each assay tube to commence the assay. The assay tubes contained incubation buffer consisting of 50 mM TRIS-HCl (pH 7.4), 0.02% BSA, 40 μg/ml bacitracin, 4 μg/ml chymostatin, 4 μg/ml leupeptin, 2 mM MnCl2, 0.1 nM ^125 iodohistidyl^1 -neurokinin A (Amersham Corp.), and concentrations of the title compounds or standards ranging from 0.03 nM to 100 μM. The assay was allowed to proceed to equilibrium for 120 min at room temperature. After this time, the contents of each tube was rapidly filtered over Whatman GF/B filters presoaked in 0.5% BSA and the filters were rapidly washed two times with ice-cold plain 50 mM TRIS-HCl (pH 7.4). Filter-bound radioactivity was quantitated in a gamma counter. Specific binding (maximum) was defined as the difference between binding in the presence and absence of 1 μM unlabeled neurokinin A. Competition of iodinated neurokinin A binding by test compounds or standards was expressed as a percentage of this maximum competition.
Values given indicate the concentration in nanomoles of antagonist to reach the IC50 of the neurokinin A (NKA) receptor. SKLKB82#3 represents a cloned NK-2 receptor cell line; the sample is prepared from the scraped cell pellet for assay as earlier described for the hamster urinary bladder preparations. NK-1 represents a substance P receptor preparation from rat salivary gland; receptors are prepared as earlier described for the hamster urinary bladder preparations. Blank spaces indicate compound has not been tested in that particular assay.

Assay [2] has as its target T2, NK-1 (substance P receptor) (Rattus norvegicus, UniProt P14600).
T2 construct: substance P receptor preparation from rat salivary gland; from tissue; host or cells: rat salivary gland
The experiment in a line: NK-1 substance P receptor preparation from rat salivary gland, binding. The protocol:
(§1) Values given indicate the concentration in nanomoles of antagonist to reach the IC50 of the neurokinin A (NKA) receptor. SKLKB82#3 represents a cloned NK-2 receptor cell line; the sample is prepared from the scraped cell pellet for assay as earlier described for the hamster urinary bladder preparations. NK-1 represents a substance P receptor preparation from rat salivary gland; receptors are prepared as earlier described for the hamster urinary bladder preparations.

In assay [3] the target is T3, cloned NK-2 receptor (SKLKB82#3 cell line) (Bos taurus, UniProt P05363).
T3 construct: expressed in transfected cells; host or cells: SKLKB82#3 cell line (scraped cell pellet)
T3 sequence (P05363 1-384): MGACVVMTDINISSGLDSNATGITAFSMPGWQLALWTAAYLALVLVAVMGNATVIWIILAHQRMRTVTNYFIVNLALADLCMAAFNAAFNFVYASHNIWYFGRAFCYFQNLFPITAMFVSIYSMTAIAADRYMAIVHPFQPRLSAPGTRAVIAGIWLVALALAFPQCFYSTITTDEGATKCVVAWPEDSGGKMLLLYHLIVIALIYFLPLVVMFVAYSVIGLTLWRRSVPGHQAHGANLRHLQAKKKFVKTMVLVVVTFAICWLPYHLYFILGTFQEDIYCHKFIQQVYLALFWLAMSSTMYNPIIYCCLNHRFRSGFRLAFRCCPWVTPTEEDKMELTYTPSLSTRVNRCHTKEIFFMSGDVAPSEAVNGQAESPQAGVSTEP
The experiment in a line: I125 NKA binding to SKLKB82#3 cloned NK-2 receptor cell line. On the procedure: as §1

Setting [4] is: cloned NK-2 receptor cell line, scraped cell pellet, read-out: SKLKB82#3 IC50.

T2 sequence (P14600 whole entry): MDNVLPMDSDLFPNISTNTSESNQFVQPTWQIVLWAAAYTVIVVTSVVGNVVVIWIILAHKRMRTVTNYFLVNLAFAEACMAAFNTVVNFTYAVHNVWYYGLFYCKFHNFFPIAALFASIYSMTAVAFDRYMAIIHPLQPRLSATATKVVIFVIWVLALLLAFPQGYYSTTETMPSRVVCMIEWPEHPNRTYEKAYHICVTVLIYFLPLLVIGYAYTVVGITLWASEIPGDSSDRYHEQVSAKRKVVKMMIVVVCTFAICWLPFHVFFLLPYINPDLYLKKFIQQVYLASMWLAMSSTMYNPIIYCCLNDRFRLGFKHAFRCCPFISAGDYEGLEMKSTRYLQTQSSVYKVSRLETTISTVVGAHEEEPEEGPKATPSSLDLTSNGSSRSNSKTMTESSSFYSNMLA

With `CC(C)C[C@H](NC(=O)[C@H](CC(C)C)NC(=O)CNC(=O)[C@@H](NC(=O)[C@H](Cc1ccccc1)NC(=O)[C@H](CO)NCCCC(=O)O)C(C)C)C(N)=O` [MDL 101,905, Suc[.psi.(CH2 NH)]Ser--Phe--Val--Gly--Leu--Leu--NH2] (HELM PEPTIDE1{[O=C(O)CCCN[C@@H](CO)C(=O)[*:2]].F.V.G.L.L.[am]}$$$$V2.0), the IC50 – broadly, the midpoint of a concentration-inhibition curve – in assay [1] was 2 µM. On the same count and under the same terms, then `CC(C)C[C@H](NC(=O)[C@H](CC(C)C)NC(=O)CN(C)C[C@@H](NC(=O)[C@H](Cc1ccccc1)NC(=O)[C@H](CO)NC(=O)[C@@H](N)CC(=O)O)C(C)C)C(N)=O` [MDL 29,712, Asp--Ser--Phe--Val[.psi.(CH2 NCH3)]Gly--Leu--Leu--NH2] (HELM PEPTIDE1{D.S.F.[CC(C)[C@@H](CN(C)CC(=O)[*:2])N[*:1]].L.L.[am]}$$$$V2.0), with > 5 µM. For `CSCC[C@H](NC[C@H](CC(C)C)NC(=O)CNC(=O)[C@@H](NC(=O)[C@H](Cc1ccccc1)NC(=O)[C@H](CO)NC(=O)[C@@H](N)CC(=O)O)C(C)C)C(N)=O` [MDL 29,646, Asp--Ser--Phe--Val--Gly--Leu(.psi.(CH2 NH))Met--NH2] (HELM PEPTIDE1{D.S.F.V.G.[CSCC[C@H](NC[C@H](CC(C)C)N[*:1])C(N)=O]}$$$$V2.0), the IC50 was 0.05 ± 0.005 µM in assay [1] and > 10 µM in assay [2].

In the case of `CCN(C[C@H](CC(C)C)NC(=O)CNC(=O)[C@@H](NC(=O)[C@H](Cc1ccccc1)NC(=O)[C@H](CO)NC(=O)[C@@H](N)CC(=O)O)C(C)C)[C@@H](CC(C)C)C(N)=O` [MDL 29,716, Asp-Ser-Phe-Val-Gly-Leu(.PSI.(CH2 NCH2 CH3))Leu-NH2] (HELM PEPTIDE1{D.S.F.V.G.[CCN(C[C@H](CC(C)C)N[*:1])[C@@H](CC(C)C)C(N)=O]}$$$$V2.0), the IC50 in assay [1] stood at 0.257 ± 0.03 µM; in assay [3] (setting [4]), 4.73 ± 0.393 µM. `CC(C)C[C@H](NC(=O)[C@H](CC(C)C)NC(=O)CNC(=O)[C@H](C(C)C)N(C)C[C@H](Cc1ccccc1)NC(=O)[C@H](CO)NC(=O)[C@@H](N)CC(=O)O)C(N)=O` [MDL 29,678, Asp--Ser--Phe[.psi.(CH2 NCH3)]Val--Gly--Leu--Leu--NH2] (HELM PEPTIDE1{D.S.[CC(C)[C@@H](C(=O)[*:2])N(C)C[C@H](Cc1ccccc1)N[*:1]].G.L.L.[am]}$$$$V2.0): in assay [1], the IC50 was > 10 µM.

For `CC(C)C[C@H](NC(=O)[C@H](CC(C)C)N(C)CCNC(=O)[C@@H](NC(=O)[C@H](Cc1ccccc1)NC(=O)[C@H](CO)NC(=O)[C@@H](N)CC(=O)O)C(C)C)C(N)=O` [MDL 102,369, Asp--Ser--Phe--Val--Gly[.psi.CH2 NCH3)]Leu--Leu--NH2] (HELM PEPTIDE1{D.S.F.V.[CC(C)C[C@@H](C(=O)[*:2])N(C)CCN[*:1]].L.[am]}$$$$V2.0), the IC50 in assay [1] was > 10 µM. As for `CC(C)C[C@@H](CO)NC[C@H](CC(C)C)NC(=O)CNC(=O)[C@@H](NC(=O)[C@H](Cc1ccccc1)NC(=O)[C@H](CO)NC(=O)[C@@H](N)CC(=O)O)C(C)C` [MDL 102,678, Asp--Ser--Phe--Val--Gly--Leu[.psi.(CH2 NH)]Leu--CH2 OH] (HELM PEPTIDE1{D.S.F.V.G.[CC(C)C[C@@H](CO)NC[C@H](CC(C)C)N[*:1]]}$$$$V2.0), the IC50 in assay [1] and in assay [3] (setting [4]) was > 10 µM throughout. Take `CC(C)C[C@@H](CN[C@@H](Cc1ccccc1)C(N)=O)NC(=O)CNC(=O)[C@@H](NC(=O)[C@H](Cc1ccccc1)NC(=O)[C@H](CO)NC(=O)[C@@H](N)CC(=O)O)C(C)C` [MDL 101,382, Asp--Ser--Phe--Val--Gly--Leu(.psi.(CH2 NH))Phe--NH2] (HELM PEPTIDE1{D.S.F.V.G.[CC(C)C[C@@H](CN[C@@H](Cc1ccccc1)C(N)=O)N[*:1]]}$$$$V2.0): the IC50 in assay [1] came to 0.005 µM; in assay [3], 0.2 µM. On to `CC(C)C[C@H](NC(=O)[C@H](CC(C)C)NC(=O)CNC[C@@H](NC(=O)[C@H](Cc1ccccc1)NC(=O)[C@H](CO)NC(=O)[C@@H](N)CC(=O)O)C(C)C)C(N)=O` [MDL 29,882, Asp--Ser--Phe--Val[.psi.(CH2 NH)]Gly--Leu--Leu--NH2], for which the results for the IC50 in assay [1] and in assay [2] were > 5 µM and > 100 µM, respectively. `CC(C)C[C@@H](CN[C@@H](CC(C)C)C(N)=O)NC(=O)CCNC(=O)[C@@H](NC(=O)[C@H](Cc1ccccc1)NC(=O)[C@H](CO)NC(=O)[C@@H](N)CC(=O)O)C(C)C` [MDL 102,500, Asp-Ser-Phe-Val-β-Ala-Leu(.PSI.(CH2 NH))Leu-NH2] (HELM PEPTIDE1{D.S.F.V.[bAla].[CC(C)C[C@@H](CN[C@@H](CC(C)C)C(N)=O)N[*:1]]}$$$$V2.0): the IC50 in assay [1] is 0.019 ± 0.003 µM. Still for that read-out and setting: then `CCCN(C[C@H](CC(C)C)NC(=O)CNC(=O)[C@@H](NC(=O)[C@H](Cc1ccccc1)NC(=O)[C@H](CO)NC(=O)[C@@H](N)CC(=O)O)C(C)C)[C@@H](CC(C)C)C(N)=O` [MDL 102,863, Asp-Ser-Phe-Val-Gly-Leu(.PSI.(CH2 N(CH2)2 CH3))Leu-NH2] (HELM PEPTIDE1{D.S.F.V.G.[CCCN(C[C@H](CC(C)C)N[*:1])[C@@H](CC(C)C)C(N)=O]}$$$$V2.0), with 0.103 ± 0.013 µM.
